In one data set the test system is CYP3A4. Kind of data set: Isolated perfused rat liver, tramadol N-demethylation to M2 after MDMA or paroxetine pretreatment. Particulars: regular doses of MDMA (1-10 mg/kg). The data set is classed as in vivo.
A short description of data set [1]: Isolated perfused rat liver, tramadol AUC in perfusate after MDMA or paroxetine pretreatment. Particulars: MDMA 1, 5 and 10 mg/kg i.p.; tramadol 1 µg/mL. Format: in vivo.
Details of data set [2]: method as in doi:10.1007/s002130000545, PMID 12404536, PMID 12869661. Particulars: following ecstasy consumption; cited from earlier work.
A further data set has as its system CYP2D6. Kind of data set: Isolated perfused rat liver, tramadol O-demethylation to M1 after MDMA or paroxetine pretreatment. Particulars: tramadol 1 µg/mL, n=4; for Metabolite ratio M1 % decrease compared to the control group: AUC0-t M1 / AUC0-t tramadol. Format: in vivo.

Marks after values point to notes of the source that are not given here.

With `CNC(C)Cc1ccc2c(c1)OCO2` (stereo not shown) [MDMA, methylenedioxymethamphetamine], the CYP3A4 activity inhibition entry with CYP3A4 was “cannot inhibit”. In data set [1], the “tramadol AUC compared to the control group” value is given as “no significant differences”. Moreover, the “duration of positive psychological effects” value in data set [2] is recorded as 3-6 hours. For the same compound, the entries for the “AUC M1 % decrease compared to the control group” value with CYP2D6 (MDMA 1 mg/kg i.p. 1 h before liver perfusion) and in the data set with CYP2D6 (MDMA 10 mg/kg i.p. 1 h before liver perfusion) were 38% and 50%, respectively. Besides, the “Metabolite ratio M1 % decrease compared to the control group” value in the data set with CYP2D6 (MDMA 1 mg/kg i.p.) was 29%; in the data set with CYP2D6 (MDMA 10 mg/kg i.p.), 45%.

For `Fc1ccc([C@@H]2CCNC[C@H]2COc2ccc3c(c2)OCO3)cc1` [paroxetine], the “AUC M1 % decrease compared to the control group” value in the data set with CYP2D6 (paroxetine 0.266 mg/kg oral, three consecutive days, listed as PXL) is on record as 40* %. For the same compound, the “Metabolite ratio M1 % decrease compared to the control group” value in the data set on CYP2D6 (paroxetine 0.266 mg/kg oral, three days) is 30%; with CYP2D6 (paroxetine 0.266 mg/kg oral, three days, listed as PXL), 30* %.
